What all share (experiment): biochemical
In experiment [1] the target is T1, ZmDRIK1 (DROUGHT RESPONSIVE INACTIVE KINASE 1), kinase domain (Zea mays, UniProt C0P4K9).
T1 construct: gene ZEAMMB73_Zm00001d028770; ZmDRIK1-KD R187-S514 (kinase domain)
T1 sequence (C0P4K9 187-514): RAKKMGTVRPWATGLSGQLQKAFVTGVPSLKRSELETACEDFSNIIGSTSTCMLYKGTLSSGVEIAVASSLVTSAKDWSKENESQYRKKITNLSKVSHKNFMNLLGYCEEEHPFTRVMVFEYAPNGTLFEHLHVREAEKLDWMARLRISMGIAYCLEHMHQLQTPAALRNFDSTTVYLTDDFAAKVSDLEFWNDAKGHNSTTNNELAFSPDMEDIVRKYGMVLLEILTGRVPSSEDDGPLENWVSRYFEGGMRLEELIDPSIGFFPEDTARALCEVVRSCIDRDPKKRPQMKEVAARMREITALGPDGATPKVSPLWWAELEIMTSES
Particulars: DSF, Boltzmann fit, 0.1% DMSO; for ΔTm at 10 µM: read-out: dTm B, sheet ZmDRIK1-R187-S514;; for dTm B: sheet ZmDRIK1-R187-S514;, 10 µM, binder. (In general: Differential scanning fluorimetry follows unfolding on heating by fluorescence.)

Experiment [2] deals with T2, ZmDRIK1-K217-P492 (Zea mays, UniProt C0P4K9).
T2 construct: kinase domain, K217-P492
T2 sequence (C0P4K9 1-514): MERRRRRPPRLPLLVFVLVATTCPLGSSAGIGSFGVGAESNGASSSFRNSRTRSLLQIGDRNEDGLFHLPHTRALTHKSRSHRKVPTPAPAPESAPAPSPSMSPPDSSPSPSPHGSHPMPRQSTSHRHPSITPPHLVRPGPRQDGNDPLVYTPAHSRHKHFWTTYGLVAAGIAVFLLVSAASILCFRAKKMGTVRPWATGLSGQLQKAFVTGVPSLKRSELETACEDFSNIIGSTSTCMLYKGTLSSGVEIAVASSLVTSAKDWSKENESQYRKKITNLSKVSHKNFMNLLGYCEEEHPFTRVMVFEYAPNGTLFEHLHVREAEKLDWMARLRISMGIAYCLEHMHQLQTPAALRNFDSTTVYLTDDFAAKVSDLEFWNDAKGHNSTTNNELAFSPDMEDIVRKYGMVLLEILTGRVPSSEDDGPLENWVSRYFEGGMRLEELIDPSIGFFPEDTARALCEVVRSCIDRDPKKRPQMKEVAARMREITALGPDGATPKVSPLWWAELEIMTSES

The target of experiment [3] is T3, ZmDRIK1-K217-S514 (Zea mays, UniProt C0P4K9).
T3 construct: kinase domain, K217-S514
T3 sequence (C0P4K9 1-514): T2 sequence (C0P4K9 1-514)

Experiment [4] deals with T4, ZmDRIK1-R187-P492 (Zea mays, UniProt C0P4K9).
T4 construct: kinase domain, R187-P492
T4 sequence (C0P4K9 1-514): T2 sequence (C0P4K9 1-514)

[5] abbreviates: read-out: dTm B, sheet ZmDRIK1-K217-P492;, DSF, Boltzmann fit, 0.1% DMSO.
[6] abbreviates: read-out: dTm B, sheet ZmDRIK1-K217-S514;, DSF, Boltzmann fit, 0.1% DMSO.
Setting [7] is: read-out: dTm B, DSF, Boltzmann fit, 0.1% DMSO.

Experimental findings from article PMC7158045 (BMC Plant Biology, 2020) are described below.

Structures can show the parent of a compound that is named as a salt. Where two headings read alike, the source gives them in different places.

Consider `COc1cc2c(N3CCN(C(=O)Nc4ccc(OC(C)C)cc4)CC3)ncnc2cc1OCCCN1CCCCC1` [Tandutinib (MLN518)], for which the ΔTm at 10 µM in experiment [1] was -0.869 °C; in experiment [2] (setting [5]) it was -0.971 °C; in experiment [3] (setting [6]) it was -0.303 °C; in experiment [4] (setting [7]), -0.158 °C.
For `Cc1cc(Nc2nc(N[C@@H](C)c3ccc(F)cc3)c(C#N)cc2F)n[nH]1` [AZ 960], in that order: -0.939 °C, -0.533 °C, -0.27 °C and -0.311 °C.
On to `S=C(NCc1ccc2c(c1)OCO2)N1CCN(c2ncnc3c2oc2ccccc23)CC1` [Amuvatinib (MP-470)], for which the ΔTm at 10 µM in experiment [2] (setting [5]) was 9.06 °C; in experiment [3] (setting [6]), -3.2 °C; in experiment [4] (setting [7]), -10.8 °C.
Turning to `CS(=O)(=O)N1CCN(Cc2cc3nc(-c4cccc5[nH]ncc45)nc(N4CCOCC4)c3s2)CC1` [GDC-0941], the ΔTm at 10 µM is -0.702 °C in experiment [1], -0.665 °C in experiment [2] (setting [5]), -0.203 °C in experiment [3] (setting [6]) and -0.181 °C in experiment [4] (setting [7]).
On to `N#CC[C@H](C1CCCC1)n1cc(-c2ncnc3[nH]ccc23)cn1` [S-Ruxolitinib (INCB018424)], for which the “dTm B” value in experiment [1] was -0.5823 degC.
The same measure, in the same setting: to `Cc1ccc(Nc2nccc(N(C)c3ccc4c(C)n(C)nc4c3)n2)cc1S(N)(=O)=O` [Pazopanib] belongs -0.7756 degC.
With `COc1cc(N2CCC(N3CCN(C)CC3)CC2)ccc1Nc1ncc(Cl)c(Nc2ccccc2P(C)(C)=O)n1` [AP26113], the ΔTm at 10 µM is -0.987 °C in experiment [2] (setting [5]), -0.362 °C in experiment [3] (setting [6]) and -0.259 °C in experiment [4] (setting [7]).
In the case of `CN(c1ncccc1CNc1nc(Nc2ccc3c(c2)CC(=O)N3)ncc1C(F)(F)F)S(C)(=O)=O` [PF-00562271], the “dTm B” value in experiment [1] is -0.8176 degC.
Same read-out and setting: next, `N#CC[C@H](C1CCCC1)n1cc(-c2ncnc3[nH]ccc23)cn1` [Ruxolitinib (INCB018424)]: -0.7708 degC.
Consider `CNC(=O)Nc1ccc(-c2nc(N3CC4CCC(C3)O4)c3cnn(C4CCC5(CC4)OCCO5)c3n2)cc1` [WYE-125132 (WYE-132)], for which the ΔTm at 10 µM in experiment [1] is -0.649 °C; in experiment [2] (setting [5]) it was -0.91 °C; in experiment [3] (setting [6]), -0.412 °C.
Turning to `Nc1ccc(-c2ccc3ncc4ccc(=O)n(-c5cccc(C(F)(F)F)c5)c4c3c2)cn1` [Torin 2], the ΔTm at 10 µM in experiment [2] (setting [5]) was -0.531 °C; in experiment [3] (setting [6]), -0.322 °C; in experiment [4] (setting [7]), -0.3 °C.
For `COc1ccc(-c2ccc3ncc4c(c3c2)n(-c2ccc(N3CCNCC3)c(C(F)(F)F)c2)c(=O)n4C)cn1` [BGT226 (NVP-BGT226)] the same measures were -0.378 °C, 0.245 °C and -0.244 °C.
For the compound `COc1ncccc1-c1cnn2ccc(N3CCN(C(=O)OC(C)C)CC3)nc12` [LP-935509 (AAK1)], the ΔTm at 10 µM in experiment [2] (read-out: dTm B) is -0.638 °C; in experiment [3] (read-out: dTm B), -0.536 °C; in experiment [4] (read-out: dTm B), -0.447 °C.
Regarding `C[C@@H](Oc1cc(-c2cnn(C3CCNCC3)c2)cnc1N)c1c(Cl)ccc(F)c1Cl` [Crizotinib (PF-02341066)], the ΔTm at 10 µM in experiment [1] was -0.958 °C; in experiment [3] (setting [6]) it was -0.67 °C; in experiment [4] (setting [7]) it was -0.336 °C.
Consider `CS(=O)(=O)CCNCc1ccc(-c2ccc3ncnc(Nc4ccc(OCc5cccc(F)c5)c(Cl)c4)c3c2)o1` [Lapatinib (GW-572016) Ditosylate], for which the ΔTm at 10 µM was -0.876 °C in experiment [2] (setting [5]), -16 °C in experiment [3] (setting [6]) and 1.26 °C in experiment [4] (setting [7]).
Consider `O=c1c(-c2ccc(O)cc2)coc2cc(O)cc(O)c12` [Genistein], for which the ΔTm at 10 µM in experiment [2] (setting [5]) is -18.8 °C; in experiment [3] (setting [6]), -13.4 °C; in experiment [4] (setting [7]), -17.5 °C.
As for `CCc1cncnc1N1CCN(Cc2nc3ccc(C(F)(F)F)cc3[nH]2)CC1` [PF-4708671], the results for the ΔTm at 10 µM in experiment [1], in experiment [2] (setting [5]) and in experiment [3] (setting [6]) were -0.759 °C, -0.666 °C and -0.219 °C, respectively.
For the compound `COc1cc(Nc2ncc(F)c(Nc3ccc4c(n3)NC(=O)C(C)(C)O4)n2)cc(OC)c1OC` [R406 (free base)], the “dTm B” value in experiment [1] is listed as -0.8381 degC.
As for `CN(c1ncccc1CNc1nc(Nc2ccc3c(c2)CC(=O)N3)ncc1C(F)(F)F)S(C)(=O)=O` [PF-562271], the “dTm B” value in experiment [1] was -0.5293 degC.
In the case of `NS(=O)(=O)c1ccc(N/C=C2\C(=O)Nc3ccc4ncsc4c32)cc1` [GW297361X], the ΔTm at 10 µM in experiment [1] was -0.74 °C.
For `Cc1ccc(NC(=O)c2cccc(C(C)(C)C#N)c2)cc1Nc1ccc2ncn(C)c(=O)c2c1` [AZ 628], the figures for the ΔTm at 10 µM in experiment [2] (setting [5]), in experiment [3] (setting [6]) and in experiment [4] (setting [7]) were -0.776 °C, -0.322 °C and -0.122 °C, respectively.
For the compound `COc1cc(Nc2ncc(F)c(Nc3ccc4c(n3)NC(=O)C(C)(C)O4)n2)cc(OC)c1OC` [R406], the “dTm B” value in experiment [1] is listed as -1.004 degC.
Regarding `O=C(NOCC1CC1)c1ccc(F)c(F)c1Nc1ccc(I)cc1Cl` [PD184352 (CI-1040)], the results for the ΔTm at 10 µM in experiment [2] (setting [5]), in experiment [3] (setting [6]) and in experiment [4] (setting [7]) were -1.2 °C, 0.792 °C and -0.348 °C, respectively.
As to `Cc1ccccc1-n1c(Cn2ncc3c(N)ncnc32)nc2cccc(C)c2c1=O` [PIK-293], the ΔTm at 10 µM in experiment [1] was -1.14 °C; in experiment [2] (setting [5]) it was -1.04 °C; in experiment [4] (setting [7]), -0.695 °C.
For `CN1CCN(c2ccc3nc(-c4c(N)c5c(F)cccc5[nH]c4=O)[nH]c3c2)CC1` [Dovitinib (TKI-258)], in experiment [1], the “dTm B” value is reported as -0.003273 degC.
`COc1cc2c(Oc3ccc(NC(=O)C4(C(=O)Nc5ccc(F)cc5)CC4)cc3F)ccnc2cc1OCCCN1CCOCC1` [Foretinib (GSK1363089)]: the results for the ΔTm at 10 µM in experiment [2] (setting [5]), in experiment [3] (setting [6]) and in experiment [4] (setting [7]) were -14.9 °C, -14.7 °C and 5.58 °C, respectively.
Regarding `CCc1cc(Nc2nccc(-c3c(-c4ccc(OC)c(C(=O)Nc5c(F)cccc5F)c4)nc4ccccn34)n2)c(OC)cc1N1CCC(N2CCN(S(C)(=O)=O)CC2)CC1` [GSK1904529A], the ΔTm at 10 µM in experiment [1] was 0.265 °C; in experiment [2] (setting [5]) it was -0.895 °C; in experiment [3] (setting [6]) it was -0.386 °C.
`CC(C)(C)c1nc(-c2cccc(NS(=O)(=O)c3c(F)cccc3F)c2F)c(-c2ccnc(N)n2)s1` [Dabrafenib (GSK2118436)]: the ΔTm at 10 µM was -1.14 °C in experiment [2] (setting [5]), -0.366 °C in experiment [3] (setting [6]) and -0.533 °C in experiment [4] (setting [7]).
As for `NC(=O)Nc1sc(-c2ccc(F)cc2)cc1C(N)=O` [TPCA-1], the ΔTm at 10 µM was -0.582 °C in experiment [1], 0.285 °C in experiment [3] (setting [6]) and 0.149 °C in experiment [4] (setting [7]).
Consider `Cn1c(Nc2ccc(C(F)(F)F)cc2)nc2cc(Oc3ccnc(-c4ncc(C(F)(F)F)[nH]4)c3)ccc21` [RAF265 (CHIR-265)], for which the ΔTm at 10 µM in experiment [2] (setting [5]) is 0.39 °C; in experiment [3] (setting [6]), 10.1 °C; in experiment [4] (setting [7]), -2.04 °C.
`COc1c(C)c(C(=O)c2ccc(N)c(C(=O)O)c2)n2ccccc12` [SSR128129E]: the values for the ΔTm at 10 µM in experiment [1], in experiment [2] (setting [5]) and in experiment [3] (setting [6]) were -0.884 °C, -0.939 °C and -0.406 °C, respectively.
On to `CN1CCN(c2ccc3nc(-c4c(N)c5c(F)cccc5[nH]c4=O)[nH]c3c2)CC1` [Dovitinib (TKI-258) Dilactic Acid], for which the “dTm B” value in experiment [1] was -0.2117 degC.
Regarding `CNC(=O)c1cc(Oc2ccc(NC(=O)Nc3ccc(Cl)c(C(F)(F)F)c3)cc2)ccn1` [Sorafenib Tosylate], in experiment [1], the ΔTm at 10 µM was -12 °C.
Regarding `CN(C[C@@H]1COCCO1)S(=O)(=O)Nc1ccc2ccc3ncc(-c4cnn(C)c4)cc3c(=O)c2c1` [MK-2461], the ΔTm at 10 µM in experiment [1] is -1 °C; in experiment [2] (setting [5]), -1.12 °C; in experiment [3] (setting [6]), -0.402 °C.
On to `COc1cc2nccc(Oc3ccc(NC(=O)C4(C(=O)Nc5ccc(F)cc5)CC4)cc3)c2cc1OC` [Cabozantinib malate (XL184)], for which, in experiment [1], the ΔTm at 10 µM was -14.9 °C.
With `COc1cc2nccc(Oc3ccc(NC(=O)Nc4ccc(F)cc4F)c(F)c3)c2cc1OC` [Ki8751], the values for the ΔTm at 10 µM in experiment [2] (setting [5]), in experiment [3] (setting [6]) and in experiment [4] (setting [7]) were -0.321 °C, -0.589 °C and -0.397 °C, respectively.
For `Cc1ccc(Nc2nccc(N(C)c3ccc4c(C)n(C)nc4c3)n2)cc1S(N)(=O)=O` [Pazopanib HCl (GW786034 HCl)], the “dTm B” value in experiment [1] was -0.83 degC.
